Laboratory results published in patent US8426169B2, “Glycosylate derivatives of mithramycin, method of preparation and uses thereof” (University of Kentucky Research Foundation, priority 2007, dated 2013).
Read-outs that look alike come from different tables or passages of the source.

Experiments:
Type in all cases: cell-based
MDA-MB-231 (breast) = test: SRB colorimetric cell growth and viability assay, MDA-MB-231; settings: 48 hours of exposure, read-out: GI50, concentration at which the compound assayed inhibits 50% of the cell growth compared to non-treated cells
A549 (lung) = test: SRB colorimetric cell growth and viability assay, A549; settings: 48 hours of exposure, read-out: GI50, concentration at which the compound assayed inhibits 50% of the cell growth compared to non-treated cells
HT29 (colon) = test: SRB colorimetric cell growth and viability assay, HT29; settings: read-out: GI50, concentration at which the compound assayed inhibits 50% of the cell growth compared to non-treated cells
[1] = Homo sapiens, HT-29, 48 hours of exposure

Molecule | GI50 (MDA-MB-231 (breast)) [nM] | GI50 (A549 (lung)) [nM] | GI50 (HT29 (colon); 48 hours of exposure) [nM] | GI50 (MDA-MB-231 (breast); Homo sapiens) [nM] | GI50 (A549 (lung); Homo sapiens) [nM] | GI50 (HT29 (colon); [1]) [nM]
6-dediolivosyl-6-β-D-amicetosyl-deoliosyl-3C-β-D-olivosyl-MTM [formula XXI] | 470 | 440 | 940 |  |  | 
6-dediolivosyl-6-β-D-amicetosyl-deoliosyl-demycarosyl-3C-β-D-boivinosyl-MTM [formula XVIII] | 400 | 750 | 2010 |  |  | 
6-dediolivosyl-6-β-D-amicetosyl-deoliosyl-demycarosyl-3C-β-D-olivosyl-3D-β-D-digitoxosyl-MTM [formula XX] | > 10000 | > 10000 | > 10000 |  |  | 
CO[C@H](C(=O)[C@@H](O)[C@@H](C)O)[C@@H]1Cc2cc3cc(O[C@H]4C[C@@H](O[C@H]5C[C@@H](O)[C@H](O)C(C)O5)[C@H](O)C(C)O4)c(C)c(O)c3c(O)c2C(=O)[C@H]1O[C@H]1C[C@@H](O[C@H]2C[C@H](O[C@H]3C[C@](C)(O)[C@H](O)C(C)O3)[C@@H](O)C(C)O2)[C@H](O)C(C)O1 (stereo partly drawn) [formula IX, deoliosyl-3C-α-L-digitoxosyl-MTM] |  |  |  | 1940 | 2670 | 3870
CO[C@H](C(=O)[C@@H](O)[C@@H](C)O)[C@@H]1Cc2cc3cc(O[C@H]4C[C@@H](O[C@H]5C[C@@H](O)[C@H](O)C(C)O5)[C@H](O)C(C)O4)c(C)c(O)c3c(O)c2C(=O)[C@H]1O[C@H]1C[C@@H](O[C@H]2C[C@@H](O[C@H]3C[C@@H](O)[C@H](O)C(C)O3)[C@@H](O)C(C)O2)[C@H](O)C(C)O1 (stereo partly drawn) [formula VIII] |  |  |  | 230 | 190 | 270
CO[C@H](C(=O)[C@@H](O)[C@@H](C)O)[C@@H]1Cc2cc3cc(O[C@H]4C[C@@H](O[C@H]5C[C@@H](O)[C@H](O)C(C)O5)[C@H](O)C(C)O4)c(C)c(O)c3c(O)c2C(=O)[C@H]1O[C@H]1C[C@@H](O[C@H]2C[C@](C)(O)[C@H](O)C(C)O2)[C@H](O)C(C)O1 (stereo partly drawn) [formula X, deoliosyl-3C-β-D-mycarosyl-MTM] |  |  |  | 370 | 480 | 930
CO[C@H](C(=O)[C@@H](O)[C@@H](C)O)[C@@H]1Cc2cc3cc(O[C@H]4C[C@@H](O)[C@H](O)C(C)O4)c(C)c(O)c3c(O)c2C(=O)[C@H]1O[C@H]1C[C@@H](O[C@H]2C[C@@H](O[C@H]3C[C@](C)(O)[C@H](O)C(C)O3)[C@@H](O)C(C)O2)[C@H](O)C(C)O1 (stereo partly drawn) [formula XI, 3A-deolivosyl-MTM] |  |  |  | 450 | 750 | 710
CO[C@H](C(=O)[C@@H](O)[C@@H](C)O)[C@@H]1Cc2cc3cc(O[C@H]4C[C@@H](O[C@H]5C[C@@H](O)[C@H](O)C(C)O5)[C@H](O)C(C)O4)c(C)c(O)c3c(O)c2C(=O)[C@H]1O[C@H]1C[C@@H](O[C@H]2C[C@@H](O)[C@@H](O)C(C)O2)[C@H](O)C(C)O1 (stereo partly drawn) [formula XII, demycarosyl-MTM] |  |  |  | 1280 | 1810 | > 10000
CO[C@H](C(=O)[C@@H](O)[C@@H](C)O)[C@@H]1Cc2cc3cc(O[C@H]4CC[C@H](O)C(C)O4)c(C)c(O)c3c(O)c2C(=O)[C@H]1O[C@H]1C[C@@H](O[C@H]2C[C@@H](O[C@H]3C[C@](C)(O)[C@H](O)C(C)O3)[C@@H](O)C(C)O2)[C@H](O)C(C)O1 (stereo partly drawn) [formula XIII] |  |  |  | 1380 | 1490 | 3190
deoliosyl-demycarosyl-3C-β-D-boivinosyl-MTM [formula XVII] | 3720 | > 10000 | > 10000 |  |  | 
deoliosyl-demycarosyl-3C-β-D-olivosyl-3D-β-D-digitoxosyl-MTM [formula XIX] | 690 | 910 | 5980 |  |  | 
